Measurements reported in paper PMC8222254, “Self-assembly of an anion receptor with metal-dependent kinase inhibition and potent in vitro anti-cancer properties” (Nature Communications, 2021).

Legend:
[1] = system: recombinant human AMPK (pT172 AMPKα1, pS108 AMPKβ1); test: In vitro phosphatase assay with recombinant kinase, immunoblotting; format: biochemical; conditions: 50µM
Experimental: (§1) 800 ng of purified recombinant human AMPK (α1β2γ1) or Src kinase (MRC PPU, International Centre for Kinase Profiling, University of Dundee) was incubated with 50 μM [L2Cu3]^6+, [L2Zn3]^6+, or vehicle control in 50 mM Tris HCl pH 7.5 containing 50 μM ATP for 4 h at 37 °C. For [L2Zn3]^6+ time course and concentration titration experiments, 800 ng recombinant human AMPK was used (α1β2γ1 AMPK isoform for pT172 AMPKα1 detection or α2β1γ1 AMPK isoform for pS108 AMPKβ1 detection). For evaluation of ATP dependency and influence of AMP, 50 µM ATP was replaced with 50 µM AMP or omitted. Reactions were stopped by addition of Laemmli’s buffer (Biorad) to 1x and heating at 95 °C for 5 min before analysis by SDS PAGE and immunoblotting for detection of specific phosphorylated amino acids of AMPK and Src proteins.
(§2) Protein lysates and recombinant proteins were resolved on 15% SDS polyacrylamide gels. Proteins were electroblotted onto nitrocellulose membrane by wet transfer in 1xTris Glycine buffer (Biorad) at 35 mA overnight at room temperature. After blocking of membranes, these were incubated with primary antibody overnight at 4 °C before addition of rabbit or mouse secondary antibody (HRP-conjugated; 1:5000, Dako P0448 or P0260) for 1 h at room temperature and development of blots by enhanced chemiluminescence. Primary antibodies were: anti-Src (total) (Cell Signalling Technology #2123 1:1000), anti-phosphorylated Src (Y527) (Cell Signalling Technology #21055 1:1000), anti-phosphorylated Src (Y416) (Cell Signalling Technology #69435 1:1000), anti-AMPKα (total) (Cell Signalling Technology #2532 1:1000), anti-phosphorylated AMPKα (T172) (Cell Signalling Technology #2535 1:1000), anti-AMPKβ1 (total) (Cell Signalling Technology #4150 1:1000), anti-phosphorylated AMPKβ1 (S108) (abcam ab156890 1:500), anti-phospho-Tyr (pan) (Cell Signalling Technology #8954 1:2000), anti-p53 (Santa Cruz, DO-1 clone, 1:1000,), anti-phosphorylated LDH-A (Y10) (Cell Signalling Technology #8176 1:1000), anti-LDH-A/B (total) (abcam ab134187 1:5000), anti-β-actin (Merck MAB1501, 1:40,000). Quantification of signals was performed by densitometry using Image J software. Uncropped and unprocessed scans are provided in the Source Data file.

[2] = target: recombinant human AMPK (pT172 AMPKα1, pS108 AMPKβ1) (Homo sapiens, UniProt Q9Y478); test: as above; format: biochemical; conditions: concentration titration 0-50µM
Experimental: as §1, §2

Src = target: T1, Src (Homo sapiens, UniProt P12931); test: as above; format: biochemical; conditions: 50 μM complex, 4 h, with ATP
T1 construct: His tag (N); host or cells: baculovirus expression system
Experimental: as §1, §2

ARPE-19 = test: Metabolic flux analysis (Cell Energy Phenotype Assay, OCR/ECAR); format: cell-based, human; design: Baseline EACR / Mean Baseline EACR / Stressed OCR / Mean Stressed OCR / Stressed EACR / Mean Stressed EACR / Baseline OCR / Mean Baseline OCR: unit not given here; conditions: for Baseline EACR / Baseline OCR / Stressed EACR / Stressed OCR / Mean Baseline EACR / Mean Baseline OCR / Mean Stressed EACR / Mean Stressed OCR: ARPE19 cells
Experimental: ARPE-19 and HCT116 cells were seeded in 8-well XFp plates (Agilent) 48 h prior to metabolic flux analyses using the Agilent XFp extracellular flux analyser. Cell seeding densities were 2500 cells/well for ARPE-19 cells and 7500 cells/well for HCT116 cells in order to achieve equivalent cell confluency (~70% confluency and in log phase growth) at the time of analyses. Cells were treated with 25 μM of [L2Zn3]^6+ or solvent control (0.2% DMSO) for 1 h or 20 h before metabolic flux analyses using the Cell Energy Phenotype Assay (Agilent) in accordance with the manufacturer’s instructions. For determination of maximal respiratory and glycolytic rates (metabolic reserve) following real-time quantification of basal respiratory and glycolytic rates, a ‘metabolic stress mix’ of 1 µM oligomycin and FCCP (0.5 µM for ARPE-19, 0.25 µM for HCT116) was injected into the media.

[3] = 31P NMR study of hydrolysis of phosphate esters and phosphorylated amino acids
Experimental: For ^1H NMR studies, reaction of [L2Zn3]^6+ with either Na2O3POPh and Bu4NH2PO4 was carried out in 10% D2O in CD3CN. The NMR solutions were prepared by dissolving the ligand L and Zn(C2H3O2)2 (in a ratio of 1:1.5) in CD3CN (600 µL). The relevant anion (0.5 equivalents w.r.t ligand) was dissolved in D2O (60 µL) and these solutions were then combined. Heating of the sample was carried out @ 80 °C in a water bath for the specified amount of time. For the ^31P NMR studies solutions were prepared by dissolving the ligand L and Zn(C2H3O2)2 (in a ratio of 1:1.5) in d6-DMSO (200 µL). The anion (0.5 equivalents w.r.t ligand) was dissolved in HEPES (600 µL, 60 mmol @ pH 7.4) and these solutions were then combined. Where required heating of the sample was carried out by incubating the sample @ 37 °C and/or a further 2 h @ 80 °C in a water bath.

[4] = 1h exposure, mean of 3 runs (Fig. 9c)
[5] = 20h exposure, mean of 3 runs (Fig. 9d)

T1 sequence (P12931 whole entry): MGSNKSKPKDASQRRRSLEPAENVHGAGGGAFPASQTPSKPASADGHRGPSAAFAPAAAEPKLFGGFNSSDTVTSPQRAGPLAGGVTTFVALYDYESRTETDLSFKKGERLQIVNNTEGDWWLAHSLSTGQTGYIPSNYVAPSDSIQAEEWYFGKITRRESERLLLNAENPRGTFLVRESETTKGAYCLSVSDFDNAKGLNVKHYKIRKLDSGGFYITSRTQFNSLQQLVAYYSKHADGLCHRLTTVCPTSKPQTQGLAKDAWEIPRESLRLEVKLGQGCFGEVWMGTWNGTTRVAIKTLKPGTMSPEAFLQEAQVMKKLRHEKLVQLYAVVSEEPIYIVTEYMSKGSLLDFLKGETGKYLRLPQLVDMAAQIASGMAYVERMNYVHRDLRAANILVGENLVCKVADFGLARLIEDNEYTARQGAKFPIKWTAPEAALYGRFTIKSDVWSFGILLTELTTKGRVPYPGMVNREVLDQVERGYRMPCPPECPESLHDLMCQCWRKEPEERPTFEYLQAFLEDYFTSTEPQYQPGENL
Chain of recombinant human AMPK (pT172 AMPKα1, pS108 AMPKβ1) (Homo sapiens, UniProt Q9Y478) (Q9Y478 whole entry): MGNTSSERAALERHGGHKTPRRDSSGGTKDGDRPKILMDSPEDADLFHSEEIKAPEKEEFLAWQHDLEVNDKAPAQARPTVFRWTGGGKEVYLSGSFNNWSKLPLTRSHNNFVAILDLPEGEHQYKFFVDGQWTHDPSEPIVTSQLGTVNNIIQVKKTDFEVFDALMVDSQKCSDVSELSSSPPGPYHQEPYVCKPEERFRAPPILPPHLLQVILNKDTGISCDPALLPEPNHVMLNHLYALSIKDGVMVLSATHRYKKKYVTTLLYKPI
Chain of recombinant human AMPK (pT172 AMPKα1, pS108 AMPKβ1) (Homo sapiens, UniProt Q9Y478) (P54646 whole entry partner): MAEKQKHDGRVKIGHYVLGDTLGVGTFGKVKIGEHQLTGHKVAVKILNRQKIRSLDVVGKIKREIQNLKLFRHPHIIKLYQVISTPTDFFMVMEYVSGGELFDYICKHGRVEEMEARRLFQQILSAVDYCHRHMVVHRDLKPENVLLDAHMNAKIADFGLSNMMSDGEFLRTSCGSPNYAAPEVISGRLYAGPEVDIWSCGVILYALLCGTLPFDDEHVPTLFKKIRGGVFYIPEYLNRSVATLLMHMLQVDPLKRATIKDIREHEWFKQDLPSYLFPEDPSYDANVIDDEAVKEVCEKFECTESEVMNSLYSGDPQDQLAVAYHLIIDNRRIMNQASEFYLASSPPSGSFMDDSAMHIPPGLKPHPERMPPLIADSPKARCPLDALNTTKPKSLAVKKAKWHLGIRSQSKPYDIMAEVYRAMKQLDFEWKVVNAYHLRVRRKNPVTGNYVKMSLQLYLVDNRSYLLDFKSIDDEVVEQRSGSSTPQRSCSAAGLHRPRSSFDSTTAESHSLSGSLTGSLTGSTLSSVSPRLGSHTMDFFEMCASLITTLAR
Chain of recombinant human AMPK (pT172 AMPKα1, pS108 AMPKβ1) (Homo sapiens, UniProt Q9Y478) (P54619 whole entry partner): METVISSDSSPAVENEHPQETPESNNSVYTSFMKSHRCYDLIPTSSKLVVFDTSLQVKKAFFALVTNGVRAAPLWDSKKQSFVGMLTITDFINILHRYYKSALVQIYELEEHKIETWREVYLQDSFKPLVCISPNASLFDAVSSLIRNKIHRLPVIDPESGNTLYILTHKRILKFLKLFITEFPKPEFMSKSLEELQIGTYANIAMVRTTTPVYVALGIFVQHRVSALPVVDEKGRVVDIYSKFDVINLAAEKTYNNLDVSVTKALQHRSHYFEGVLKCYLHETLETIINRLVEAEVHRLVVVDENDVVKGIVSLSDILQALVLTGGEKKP

CC(=O)[O-].CC(=O)[O-].CC(=O)[O-].CC(=O)[O-].CC(=O)[O-].CC(=O)[O-].[Zn+2].[Zn+2].[Zn+2].c1ccc(-c2csc(NCCN(CCNc3nc(-c4ccccn4)cs3)CCNc3nc(-c4ccccn4)cs3)n2)nc1.c1ccc(-c2csc(NCCN(CCNc3nc(-c4ccccn4)cs3)CCNc3nc(-c4ccccn4)cs3)n2)nc1 [[L2Zn3]6+]
time from which decrease in phosphorylated T172 AMPKα and S108 AMPKβ1 is evident [1]: ≥ 2 h
concentration from which dephosphorylation is evident [2]: ≥ 12.5 µM
decrease in Y527P relative to total Src levels (Src): ~ 30%
increase in Y416P levels (Src): ~ 5 fold
Baseline EACR (ARPE-19; 1h exposure, Run 1 (Fig. 9c)): 18.76
Baseline OCR (ARPE-19; 1h exposure, Run 1 (Fig. 9c)): 23.36
Stressed EACR (ARPE-19; 1h exposure, Run 1 (Fig. 9c)): 24.63
Stressed OCR (ARPE-19; 1h exposure, Run 1 (Fig. 9c)): 30.28
Baseline EACR (ARPE-19; 1h exposure, Run 2 (Fig. 9c)): 18.49
Baseline OCR (ARPE-19; 1h exposure, Run 2 (Fig. 9c)): 21.88
Stressed EACR (ARPE-19; 1h exposure, Run 2 (Fig. 9c)): 25.17
Stressed OCR (ARPE-19; 1h exposure, Run 2 (Fig. 9c)): 27.97
Baseline EACR (ARPE-19; 1h exposure, Run 3 (Fig. 9c)): 18.70
Baseline OCR (ARPE-19; 1h exposure, Run 3 (Fig. 9c)): 20.12
Stressed EACR (ARPE-19; 1h exposure, Run 3 (Fig. 9c)): 24.11
Stressed OCR (ARPE-19; 1h exposure, Run 3 (Fig. 9c)): 25.60
Mean Baseline EACR (ARPE-19; [4]): 18.65
Mean Baseline OCR (ARPE-19; [4]): 21.79
Mean Stressed EACR (ARPE-19; [4]): 24.64
Mean Stressed OCR (ARPE-19; [4]): 27.95
Baseline EACR (ARPE-19; 20h exposure, Run 1 (Fig. 9d)): 13.57
Baseline OCR (ARPE-19; 20h exposure, Run 1 (Fig. 9d)): 9.08
Stressed EACR (ARPE-19; 20h exposure, Run 1 (Fig. 9d)): 15.01
Stressed OCR (ARPE-19; 20h exposure, Run 1 (Fig. 9d)): 12.02
Baseline EACR (ARPE-19; 20h exposure, Run 2 (Fig. 9d)): 10.60
Baseline OCR (ARPE-19; 20h exposure, Run 2 (Fig. 9d)): 7.37
Stressed EACR (ARPE-19; 20h exposure, Run 2 (Fig. 9d)): 11.55
Stressed OCR (ARPE-19; 20h exposure, Run 2 (Fig. 9d)): 9.95
Baseline EACR (ARPE-19; 20h exposure, Run 3 (Fig. 9d)): 12.23
Baseline OCR (ARPE-19; 20h exposure, Run 3 (Fig. 9d)): 7.73
Stressed EACR (ARPE-19; 20h exposure, Run 3 (Fig. 9d)): 13.58
Stressed OCR (ARPE-19; 20h exposure, Run 3 (Fig. 9d)): 9.28
Mean Baseline EACR (ARPE-19; [5]): 12.13
Mean Baseline OCR (ARPE-19; [5]): 8.06
Mean Stressed EACR (ARPE-19; [5]): 13.38
Mean Stressed OCR (ARPE-19; [5]): 10.41
glycolysis (ECAR) (ARPE-19; ARPE-19, 25 μM, 1 h): unaffected
dephosphorylation of serine-OPO3 2- (31P NMR) ([3]; 37 °C): completion after 48 h
dephosphorylation of tyrosine-OPO3 2- (31P NMR) ([3]; 37 °C): completion after 48 h
dephosphorylation of threonine-OPO3 2- (31P NMR) ([3]; 37 °C, compared with serine and tyrosine phosphate): much slower
hydrolysis of phenyl phosphate dianion (31P NMR) ([3]; after 44 h at 37 °C, 25% DMSO / HEPES): virtually no signal
hydrolysis of 4-nitrophenyl phosphate (31P NMR) ([3]; following mixing): almost immediate hydrolysis
